# From paper PMC3316592, “Functional Analysis of General Odorant Binding Protein 2 from the Meadow Moth, Loxostege sticticalis L. (Lepidoptera: Pyralidae)” (PLoS ONE, 2012)
# “And” between values parts separate entries of the source, which are not always exact repeats. Equal entries are not always repeated. “Also recorded” adds a separate entry of the source. Where two headings read alike, the source gives them in different places.
# Experiments:
# recombinant LstiGOBP2 = recombinant LstiGOBP2 (Loxostege sticticalis, UniProt C6ZDA6); assay: biochemical; format: binding; conditions: for binding to LstiGOBP2 (in words): competitive displacement of 1-NPN
# recombinant LstiGOBP2, sequence (C6ZDA6 entry or part of it): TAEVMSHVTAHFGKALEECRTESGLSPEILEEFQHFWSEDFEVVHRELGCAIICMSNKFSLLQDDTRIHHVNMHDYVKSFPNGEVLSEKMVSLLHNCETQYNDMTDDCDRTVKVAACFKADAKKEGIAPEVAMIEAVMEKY
# Description: Fluorescence spectra were recorded in a right angle configuration on a Lengguang 970 CRT spectrofluorimeter (Shanghai Jingmi, China) at room temperature using a 1-cm light path fluorimeter quartz cuvette. Slit widths of 10 nm were selected for both excitation and emission. The spectra data were processed using 970 CRT 2.0l software.
# N-phenyl-1-naphthylamine (1-NPN) was dissolved in methanol to yield a 1 mM stock solution. […] 1-NPN was excited at 337 nm and emission spectra were recorded between 350 and 600 nm. Spectra were recorded with high-speed scanning. All ligands used in competition experiments were dissolved in spectrophotometric-grade methanol. Binding data were collected in three independent measurements.
# Bound ligand was evaluated from the values of fluorescence intensity assuming that the protein was 100% active, with a stoichiometry of 1∶1 (protein∶ligand) at saturation. The K1-NPN values were estimated using Prism 5 (GraphPad Software, Inc.) by nonlinear regression for a unique site of binding. The curves were linearized using Scatchard plots.
# LstiGOBP1 = system: LstiGOBP1; parameters: method as in earlier work; conditions: cited from earlier work
# L. sticticalis antennae = assay: Electroantennogram (EAG) recording; parameters: species or system Loxostege sticticalis; conditions: for EAG response (in words) / EAG depolarization: 10 mg/ml in hexane; for EAG response (in words): adult antennae; for EAG depolarization: highest EAG responses
# Description: Antennae of adult moths were excised at the base and immediately placed on an EAG Micromanipulator MP-15 (Syntech) platform for EAG. Antennae were attached to two electrode holders with non-drying clay (Spectra 360 Electrode Gel). […] Pure chemicals were diluted with hexane to a final concentration of 10 mg/ml. EAG signals were amplified, monitored, and analyzed with EAG-Pro software (Syntech). The preparation was held in a humidified air stream delivered by a Syntech stimulus controller (CS-55 model; Syntech) at 500 ml/min, to which a stimulus pulse of 40 ml/min was added for […]. Signals were recorded for 10 sec, beginning at 2 sec before the onset of the stimulus pulse. An aliquot (10 µl) of each stimulus was loaded onto a filter paper strip. After each sample was tested, hexane was tested as a control. EAG responses of at least three antennae were recorded.
# [1] = at ligand concentration 20 µM, protein 2 µM, 1-NPN probe, read-out: Int (fluorescence intensity as percent of the initial fluorescence)
# [2] = read-out: Int (fluorescence intensity as percent of the initial fluorescence)
# [3] = IC50 (concentration of ligand halving the initial fluorescence intensity), protein 2 µM, 1-NPN probe, ligand titrated to 2–50 µM in methanol
# [4] = Ki (relative dissociation constant), calculated from IC50: Ki = [IC50]/1+[1-NPN]/K1-NPN
# [5] = read-out: Int (fluorescence intensity as percent of the initial fluorescence), at ligand concentration 20 µM, protein 2 µM, 1-NPN probe
# [6] = calculated from IC50: Ki = [IC50]/1+[1-NPN]/K1-NPN, read-out: Ki (relative dissociation constant)
# [7] = protein 2 µM, 1-NPN probe, ligand titrated to 2–50 µM in methanol, read-out: IC50 (concentration of ligand halving the initial fluorescence intensity)
# [8] = at ligand concentration 20 µM, protein 2 µM, 1-NPN probe
compound,measurement,setting,value
"C=CC(C)(O)CCC=C(C)C (single isomer, unassigned; (-)) [(-)-Linalool]",IC50,recombinant LstiGOBP2,28 µM
same,Ki,recombinant LstiGOBP2,16.5 µM
same,activity at 20 µM,recombinant LstiGOBP2; [1],53%
COC(=O)c1ccccc1O [Methyl salicylate],IC50,recombinant LstiGOBP2,> 50 µM
same,activity at 20 µM,recombinant LstiGOBP2; [2],83%
CCCCCCCCCCCCCCC [Pentadecane],binding to LstiGOBP1 (in words),LstiGOBP1,bind
CC1=CC[C@H](C(C)C)C=C1 [α-Phellandrene],EAG response (in words),L. sticticalis antennae,strong responses
same,binding to LstiGOBP2 (in words),recombinant LstiGOBP2,do not show affinities
same,binding to LstiGOBP1 (in words),LstiGOBP1,do not show affinities
CC=CCCCO [4-Hexen-1-ol],IC50,recombinant LstiGOBP2,26 µM
same,Ki,recombinant LstiGOBP2,15.3 µM
same,activity at 20 µM,recombinant LstiGOBP2; [1],58%
COC(=O)c1ccccc1C(=O)OC [Dimethyl phthalate],IC50,recombinant LstiGOBP2; [3],20 µM and 36 µM
same,Ki,recombinant LstiGOBP2; [4],11.8 µM and 21.2 µM
same,Int (fluorescence intensity as percent of the initial fluorescence),"recombinant LstiGOBP2; at ligand concentration 20 µM, protein 2 µM, 1-NPN probe, 20 µM",64%
same,activity at 20 µM,recombinant LstiGOBP2; [5],50%
CCCCCCCCC=O [1-Nonanal],activity at 20 µM,recombinant LstiGOBP2; [1],66%
same,Ki,recombinant LstiGOBP2; [6],22.9 µM
same,binding to LstiGOBP2 (in words),recombinant LstiGOBP2,very weak binding affinity
same,IC50,recombinant LstiGOBP2; [7],39 µM
CC(C)=CCC/C(C)=C/CO [Geraniol],IC50,recombinant LstiGOBP2; [3],22 µM
same,Ki,recombinant LstiGOBP2; [4],12.9 µM
same,activity at 20 µM,recombinant LstiGOBP2; [5],54%
C=CC(O)CCCCC (stereo not shown) [1-Octen-3-ol],EAG response (in words),L. sticticalis antennae,strong responses; also recorded: intensive responses
same,binding to LstiGOBP1 (in words),LstiGOBP1,present an affinity
CC12CCC(CC1=O)C2(C)C (stereo not shown) [Camphor],IC50,recombinant LstiGOBP2,14 µM
same,Ki,recombinant LstiGOBP2; [6],8.2 µM
same,activity at 20 µM,recombinant LstiGOBP2; [2],41%
CC(=O)/C=C/C1C(C)=CCCC1(C)C (stereo not drawn) [α-ionone],EAG response (in words),L. sticticalis antennae,weak effects; also recorded: failed to elicit a strong electrophysiological response
same,IC50,recombinant LstiGOBP2; [3],8 µM
same,Ki,recombinant LstiGOBP2; [4],4.7 µM
same,binding to LstiGOBP2 (in words),recombinant LstiGOBP2,strongest affinities
same,activity at 20 µM,recombinant LstiGOBP2; [5],39%
CC(C)=CCCC(C)O (stereo not shown) [6-Methyl-5-hepten-2-ol],activity at 20 µM,recombinant LstiGOBP2; [1],63%
same,Ki,recombinant LstiGOBP2; [6],16.5 µM
same,IC50,recombinant LstiGOBP2; [7],28 µM
CC/C=C\CCO [Cis-3-hexen-1-ol],EAG response (in words),L. sticticalis antennae,high EAG response
same,IC50,recombinant LstiGOBP2,19 µM
same,Ki,recombinant LstiGOBP2,11.2 µM
same,binding to LstiGOBP2 (in words),recombinant LstiGOBP2,high binding affinities
same,activity at 20 µM,recombinant LstiGOBP2; [2],49%
CCCCCCCO [1-Heptanol],EAG depolarization,L. sticticalis antennae,−1.6 mV
same,IC50,recombinant LstiGOBP2,10.5 µM
same,Ki,recombinant LstiGOBP2; [6],6.2 µM
same,activity at 20 µM,recombinant LstiGOBP2; [2],40%
c1ccc2scnc2c1 [Benzothiazole],IC50,recombinant LstiGOBP2,22 µM
same,Ki,recombinant LstiGOBP2,12.9 µM
same,activity at 20 µM,recombinant LstiGOBP2; [2],52%
CCCCCC=O [1-Hexanal],IC50,recombinant LstiGOBP2,12.5 µM
same,Ki,recombinant LstiGOBP2,7.3 µM
same,binding to LstiGOBP2 (in words),recombinant LstiGOBP2,high affinities
same,activity at 20 µM,recombinant LstiGOBP2; [2],36%
CCCCCCO [1-Hexanol],IC50,recombinant LstiGOBP2,11 µM
same,Ki,recombinant LstiGOBP2; [6],6.5 µM
same,activity at 20 µM,recombinant LstiGOBP2; [2],42%
CCCCC=O [1-Pentanal],activity at 20 µM,recombinant LstiGOBP2; [1],46%
same,Ki,recombinant LstiGOBP2; [6],8.2 µM
same,binding to LstiGOBP2 (in words),recombinant LstiGOBP2,high affinities
same,IC50,recombinant LstiGOBP2; [7],14 µM
CCC/C=C/COC(C)=O [Trans-2-hexenyl acetate],activity at 20 µM,recombinant LstiGOBP2; [1],59%
same,Ki,recombinant LstiGOBP2; [6],16.5 µM
same,IC50,recombinant LstiGOBP2; [7],28 µM
C=C(C)[C@H]1CC=C(C)CC1 [R-(+)-Limonene],EAG response (in words),L. sticticalis antennae,strong responses
same,binding to LstiGOBP2 (in words),recombinant LstiGOBP2,do not show affinities
same,binding to LstiGOBP1 (in words),LstiGOBP1,do not show affinities
"c1ccc(Nc2cccc3ccccc23)cc1 [1-NPN, N-phenyl-1-naphthylamine, reference compound]",Kd,recombinant LstiGOBP2,~1.44 µM
Iso-octanol,Int (fluorescence intensity as percent of the initial fluorescence),recombinant LstiGOBP2; [8],58%
same,Ki,recombinant LstiGOBP2; [6],16.5 µM
same,IC50,recombinant LstiGOBP2; [7],28 µM
C=CC(=C)CCC=C(C)C [Myrcene],activity at 20 µM,recombinant LstiGOBP2; [1],56%
same,Ki,recombinant LstiGOBP2; [6],14.7 µM
same,IC50,recombinant LstiGOBP2; [7],25 µM
CCCCCCC=O [1-Heptanal],IC50,recombinant LstiGOBP2,24 µM
same,Ki,recombinant LstiGOBP2; [6],14.1 µM
same,activity at 20 µM,recombinant LstiGOBP2; [2],52%
CCC/C=C/C=O [Trans-2-hexenal],EAG response (in words),L. sticticalis antennae,high EAG response
same,IC50,recombinant LstiGOBP2,10.5 µM
same,Ki,recombinant LstiGOBP2,6.2 µM
same,binding to LstiGOBP2 (in words),recombinant LstiGOBP2,high binding affinities
C=C1CC/C=C(\C)CC[C@@H]2[C@@H]1CC2(C)C [(-)-Trans-caryophyllene],IC50,recombinant LstiGOBP2,> 50 µM
same,binding to LstiGOBP2 (in words),recombinant LstiGOBP2,very weak binding affinity
same,activity at 20 µM,recombinant LstiGOBP2; [2],86%
CCC/C=C\CO [Cis-2-hexen-1-ol],IC50,recombinant LstiGOBP2,24 µM
same,Ki,recombinant LstiGOBP2,14.1 µM
same,activity at 20 µM,recombinant LstiGOBP2; [1],59%
O=C/C=C/c1ccccc1 [Cinnamaldehyde],EAG response (in words),L. sticticalis antennae,weak response
same,IC50,recombinant LstiGOBP2; [3],17 µM
same,Ki,recombinant LstiGOBP2; [4],10 µM
same,activity at 20 µM,recombinant LstiGOBP2; [5],45%
"CC(C)(C)c1ccc(O)c(C(C)(C)C)c1 [2,4-Di-tert-butylphenol]",EAG response (in words),L. sticticalis antennae,weak effects; also recorded: weak response
same,IC50,recombinant LstiGOBP2,20 µM
same,Ki,recombinant LstiGOBP2,11.8 µM
same,binding to LstiGOBP2 (in words),recombinant LstiGOBP2,high affinity
same,activity at 20 µM,recombinant LstiGOBP2; [2],50%
CC/C=C/CCCCCCCCCCOC(C)=O [Trans-11-tetradecen-1-yl acetate],EAG response of the male antennae (in words),"L. sticticalis antennae; male antennae, 10 mg/ml",highest among all the volatiles tested
same,EAG response difference between males and females,L. sticticalis antennae; male vs female antennae,significantly different
same,activity at 20 µM,recombinant LstiGOBP2; [1],48%
same,Ki,recombinant LstiGOBP2; [6],10.6 µM
same,binding to LstiGOBP2 (in words),recombinant LstiGOBP2,bind strongly; also recorded: high binding affinity
same,IC50,recombinant LstiGOBP2; [7],18 µM
CCCCCCCC=O [1-Octanal],EAG depolarization,L. sticticalis antennae,−1.6 mV
same,activity at 20 µM,recombinant LstiGOBP2; [1],52%
same,Ki,recombinant LstiGOBP2; [6],14.1 µM
same,IC50,recombinant LstiGOBP2; [7],24 µM
O=CCc1ccccc1 [Phenyl acetaldchyde],Int (fluorescence intensity as percent of the initial fluorescence),recombinant LstiGOBP2; [8],50%
same,Ki,recombinant LstiGOBP2; [6],11.8 µM
same,IC50,recombinant LstiGOBP2; [7],20 µM
C=C1C2CCC(C2)C1(C)C (stereo not shown) [Camphene],IC50,recombinant LstiGOBP2; [7],23 µM
same,activity at 20 µM,recombinant LstiGOBP2; [2],54%
CCC/C=C/CO [Trans-2-hexen-1-ol],EAG response (in words),L. sticticalis antennae,intensive responses
same,EAG response (in words),L. sticticalis antennae; listed as E-2-hexeno1,strong responses
same,binding to LstiGOBP1 (in words),LstiGOBP1,present an affinity
CC/C=C\CCOC(C)=O [Cis-3-hexenyl acetate],activity at 20 µM,recombinant LstiGOBP2; [1],57%
same,Ki,recombinant LstiGOBP2; [6],17.1 µM
same,IC50,recombinant LstiGOBP2; [7],29 µM
CC(=O)CCC=C(C)C [6-Methyl-5-hepten-2-one],IC50,recombinant LstiGOBP2; [3],28 µM
same,Ki,recombinant LstiGOBP2; [4],16.5 µM
same,activity at 20 µM,recombinant LstiGOBP2; [5],64%
CC(=O)/C=C/C1=C(C)CCCC1(C)C [β-ionone],EAG response (in words),L. sticticalis antennae,weak effects; also recorded: failed to elicit a strong electrophysiological response
same,IC50,recombinant LstiGOBP2; [3],11 µM
same,Ki,recombinant LstiGOBP2; [4],6.5 µM
same,binding to LstiGOBP2 (in words),recombinant LstiGOBP2,strongest affinities
same,activity at 20 µM,recombinant LstiGOBP2; [5],37%
O=Cc1ccccc1 [Benzaldehyde],EAG response (in words),L. sticticalis antennae,weak response
same,IC50,recombinant LstiGOBP2; [3],19 µM
same,Ki,recombinant LstiGOBP2; [4],11.2 µM
same,activity at 20 µM,recombinant LstiGOBP2; [5],48%
